Assay results from patent US8420144B2, “Kokumi-imparting agent, method of using, and compositions containing same” (Ajinomoto Co., Inc., priority 2005, dated 2013).

Biological target: T1, human CaSR (Homo sapiens, UniProt P41180)
T1 construct: expressed in transfected cells; host or cells: HEK 293 cells, transient transfection of a CMV-promoter expression vector
T1 sequence (P41180 20-1078): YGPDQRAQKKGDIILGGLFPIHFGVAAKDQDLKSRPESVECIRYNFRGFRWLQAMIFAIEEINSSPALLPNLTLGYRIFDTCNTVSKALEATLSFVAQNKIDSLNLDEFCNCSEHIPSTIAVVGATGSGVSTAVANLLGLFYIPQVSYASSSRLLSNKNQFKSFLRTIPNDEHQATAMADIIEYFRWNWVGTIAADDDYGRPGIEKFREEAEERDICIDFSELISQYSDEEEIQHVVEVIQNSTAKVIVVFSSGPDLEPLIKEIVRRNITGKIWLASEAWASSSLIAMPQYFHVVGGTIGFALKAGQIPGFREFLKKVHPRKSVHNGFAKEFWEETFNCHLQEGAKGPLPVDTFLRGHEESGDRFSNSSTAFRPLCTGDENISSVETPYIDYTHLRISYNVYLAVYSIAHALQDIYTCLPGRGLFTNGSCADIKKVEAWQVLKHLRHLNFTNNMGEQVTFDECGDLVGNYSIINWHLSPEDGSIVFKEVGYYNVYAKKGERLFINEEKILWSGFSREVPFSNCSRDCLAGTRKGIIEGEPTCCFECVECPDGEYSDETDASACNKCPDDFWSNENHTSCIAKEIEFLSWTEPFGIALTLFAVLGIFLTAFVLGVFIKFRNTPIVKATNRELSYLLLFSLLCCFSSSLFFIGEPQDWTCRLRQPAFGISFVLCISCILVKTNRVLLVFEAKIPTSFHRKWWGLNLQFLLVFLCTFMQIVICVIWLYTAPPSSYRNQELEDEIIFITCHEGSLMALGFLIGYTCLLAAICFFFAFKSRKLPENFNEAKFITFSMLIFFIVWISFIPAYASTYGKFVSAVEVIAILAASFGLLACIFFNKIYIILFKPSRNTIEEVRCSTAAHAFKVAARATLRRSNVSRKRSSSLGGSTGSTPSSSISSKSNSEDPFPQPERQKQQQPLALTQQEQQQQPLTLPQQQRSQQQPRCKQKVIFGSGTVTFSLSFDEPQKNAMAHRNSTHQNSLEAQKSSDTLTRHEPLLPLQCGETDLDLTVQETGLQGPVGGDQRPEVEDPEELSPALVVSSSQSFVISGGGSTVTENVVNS
Test: Calcium receptor (CaSR) activation activity: calcium imaging in HEK 293 cells expressing human CaSR
Type: cell-based
Conditions: concentration giving 50% of the maximal activity; single values n = 1, others n = 2 or 3
Protocol: Calcium receptor (CaSR) activation activity of peptides obtained in Examples 2, 3, and 5-12 were measured as follows. A cDNA of human CaSR obtained in Example 1 of WO2007/055393A1 was inserted into an expression vector for an animal cell having a CMV promoter, and the cDNA in the vector was introduced into HEK 293 cells, which had multiplied to 70% of the maximal cell density, using FuGINE6 (Roche Ltd.). After culturing the cells for 4 to 48 hours, 0.6-1.0×10^5 of cells/well were disseminated into a 96-well plate, subsequently, the cells were cultured for one day, and then stained using Calcium 3 Assay Kit. The presence or absence of a calcium receptor activation activity of each peptide was confirmed by a calcium imaging method using FLEXSTATION (Molecular Devices Inc., instruction manual). Furthermore, the concentration of each peptide giving 50% of the maximal activity (EC50) was calculated using a dose characteristic curve.

Question: Which EC50 does the source give for `CC(C)[C@H](NC(=O)CC[C@H](N)C(=O)O)C(=O)NCC(=O)O` [γ-Glu-Val-Gly] here?
Answer: 23 to 55 nM
